Reference: paper PMC10914731, “Homo-BacPROTAC-induced degradation of ClpC1 as a strategy against drug-resistant mycobacteria” (Nature Communications, 2024)
In brackets after ≈: the same amount, converted by molar mass. Several values for one entry are separate records, joined by “and”; a condition that tells them apart may be missing. Equal values may be shown once. Read-outs that look alike come from different tables or passages of the source. Where a SMILES comes first, the peptide text is derived from it. [ ]: non-standard residue; d: D form. NMeLeu(5-OH,4R) = CN[C@@H](C[C@@H](C)CO)C(=O)O; Phe(βR-OMe) = CO[C@H](c1ccccc1)[C@H](N)C(=O)O; Trp(1-Me) = Cn1cc(C[C@H](N)C(=O)O)c2ccccc21; NMeL = CN[C@@H](CC(C)C)C(=O)O; Pra = C#CC[C@H](N)C(=O)O

Experiments:
Acinetobacter baumannii = experiment: MIC ESKAPES panel, Acinetobacter baumannii; format: cell-based
Protocol: Minimum inhibitory concentration (MIC) against ESKAPES panel of Gram positive and Gram negative pathogens (Enterococcus faecium, Staphylococcus aureus, Klebsiella pneumoniae, Acinetobacter baumannii, Pseudomonas aeruginosa, Enterobacter cloacae and Salmonella typhimurium [ESKAPES panel]) were determined at the FNDR by the standard broth dilution method [CLSI, M100]. […] Mueller Hinton broth (MHB) medium was used to grow ESKAPES panel strains. The individual cultures were added as 200 μL (inoculum of 3–7 × 10^5 cfu/ml) to the respective assay plates in each well to all columns, except the media control (200 μL of medium). […] The assay plates were incubated at 37 °C, and the results were noted on the 2nd day as turbidometric readout. The clear wells indicated inhibition of growth, while the turbid wells indicated uninhibited growth.

Mtb # 11291 = experiment: microbe, parasite or virus in culture; format: cell-based; conditions: for MIC: read-out: MIC Mtb # 11291
[1] = target: endogenous ClpC1 in Msm #607 cells (Mycolicibacterium smegmatis, UniProt A0R574); format: cell-based, M. smegmatis
Chain of endogenous ClpC1 in Msm #607 cells (A0R574 whole entry): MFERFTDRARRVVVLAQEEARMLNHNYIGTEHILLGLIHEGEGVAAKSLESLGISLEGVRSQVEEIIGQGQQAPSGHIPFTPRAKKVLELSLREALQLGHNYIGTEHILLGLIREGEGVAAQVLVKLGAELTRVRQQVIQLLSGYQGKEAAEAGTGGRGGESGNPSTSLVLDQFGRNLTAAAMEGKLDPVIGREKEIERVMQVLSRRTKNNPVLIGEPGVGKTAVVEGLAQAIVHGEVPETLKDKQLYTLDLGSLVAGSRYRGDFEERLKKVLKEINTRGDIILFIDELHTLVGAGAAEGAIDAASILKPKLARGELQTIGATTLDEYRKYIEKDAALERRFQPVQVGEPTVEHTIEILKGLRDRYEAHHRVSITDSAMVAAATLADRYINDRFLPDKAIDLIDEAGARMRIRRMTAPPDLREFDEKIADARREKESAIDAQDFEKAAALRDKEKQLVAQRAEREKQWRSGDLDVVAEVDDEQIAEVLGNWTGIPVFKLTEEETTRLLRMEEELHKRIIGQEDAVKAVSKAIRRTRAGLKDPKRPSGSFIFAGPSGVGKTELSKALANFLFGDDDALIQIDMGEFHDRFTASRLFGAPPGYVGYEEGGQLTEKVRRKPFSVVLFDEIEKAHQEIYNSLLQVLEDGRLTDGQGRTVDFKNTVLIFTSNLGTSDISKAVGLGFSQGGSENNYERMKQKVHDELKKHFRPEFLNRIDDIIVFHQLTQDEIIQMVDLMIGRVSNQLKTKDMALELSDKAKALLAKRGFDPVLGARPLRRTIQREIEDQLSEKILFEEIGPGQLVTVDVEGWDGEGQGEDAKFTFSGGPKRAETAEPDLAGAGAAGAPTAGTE

Mycobacterium fortuitum = experiment: microbe, parasite or virus in culture; format: cell-based
Mtb H37Rv = experiment: Minimum bactericidal concentration (MBC), Mtb H37Rv; format: cell-based, Mycobacterium tuberculosis
[2] = test system: Mtb H37Rv in THP-1 macrophages; experiment: Intracellular MIC assay in THP-1 macrophages; format: cell-based, Mycobacterium tuberculosis; design: Emax: unit not given here
[3] = target: ClpC1 NTD protein (M. tuberculosis) (Mycobacterium tuberculosis, UniProt P9WPC9); experiment: biochemical; format: binding
Chain of ClpC1 NTD protein (M. tuberculosis) (P9WPC9 1-156, looked up, natural form): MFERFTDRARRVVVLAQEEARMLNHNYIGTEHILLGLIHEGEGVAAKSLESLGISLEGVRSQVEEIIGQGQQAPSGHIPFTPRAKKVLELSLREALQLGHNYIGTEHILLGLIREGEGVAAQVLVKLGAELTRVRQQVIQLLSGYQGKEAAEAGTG

in vivo = format: in vivo, BALB/cAnNCrl mice; conditions: BLOQ <1.00 nmol/L
Protocol: The in-life experimental procedures were conducted in strict compliance with German and European animal welfare legislation in an AAALAC-accredited facility. Male BALB/cAnNCrl mice (Charles River Laboratories Research Models and Services, 97633 Sulzfeld, Germany) were used. Animals were 9 weeks old at dosing with a body weight of 21.6–24.3 g. Animals were delivered free of pathogens according to FELASA recommendations with a health certificate provided by the breeder. Upon receipt, the state of health and sex was checked. Animals acclimatized for at least 5 days before the commencement of the in-life phase. During acclimation, animals were group-housed in individually ventilated cages, on birch wood granulate bedding with species-specific enrichment (nesting material, mouse igloo, gnawing wood). During experimental conduct, animals were housed in conventional cages with elevated grid floors. Grid floor was used to avoid contamination with test item material excreted via urine and feces and subsequent reuptake during fur grooming. No bedding and enrichment were provided except a cage divider, which can be used as a shelter. Animals always had unlimited access to food and water and received a pelleted, total pathogen-free maintenance diet and tap drinking water, sterilized by filter.
On the day before dosing, test item(s) were suspended in kleptose (20% in WFI) under continuous stirring (3.0 mg/ml). Following 2 min vortexing and 1 h stirring, the formulation was sonicated at 60 °C for 30 min and stirred at ambient temperature overnight. Before dosing, the formulation was vortexed for 2 min followed by ultraturrax treatment for 2 min.
Male BALB/cAnNCrl mice (n = 3 per test item and administration route) received a bolus dose of the formulated test item(s) (1 mg/kg iv, 30 mg/kg po) at t = 0 h, and whole blood samples were collected subsequently (35 µl at 0.1 (iv) / 0.25 (po), 0.5, 1, 2, 4, 6 h; 600 µl at sacrifice after 24 h). Animals were euthanized by exsanguination in deep isoflurane anesthesia. Whole blood samples were immediately stored on ice at about 4 °C. Plasma was separated by centrifugation at approximately 10,000 × g for 5 m at +4 °C. Centrifugation of each blood sample was started within 10 m after collection. A single aliquot of at least 15 µL of plasma was prepared and immediately stored at −20 ± 5 °C.
Sample proteins were precipitated with ACN (1 + 12, v/v) containing internal standard, and supernatants analyzed by quantitative UPLC-MS/MS: Phenomenex Luna Omega C18, 2.1 × 50 mm, 1.6 µm, 40 °C, gradient between 10% - 90% ACN with 0.1% formic acid. LogD determination: Lipophilicity of the test items, expressed as chromLogD7.5, was assessed by measuring their chromatographic retention times on C18-material. The chromatographic retention versus logD7.5 values of a series of thirteen n-alkan-2-ones (2-butanone – 2-hexadecanone) served as lipophilicity calibration.

[4] = Gram negative, n = 3 well replicates, read-out: MIC Acinetobacter baumanii
[5] = Gram-Negative Bacteria, replicates 1-3, read-out: MIC Acinetobacter baumannii
[6] = Experiment 2, three replicate columns
[7] = Experiment 2, three replicate columns, read-out: MIC (µM) Mycobacterium fortuitum
[8] = Mycolicibacterium fortuitum, Experiment 1, read-out: MIC Mycobacterium fortuitum
[9] = Mycolicibacterium fortuitum, Experiment 2, three replicate columns, read-out: MIC (µM) Mycobacterium fortuitum
[10] = Mycolicibacterium fortuitum, Experiment 2, three replicate columns, read-out: MIC (µg/ml) Mycobacterium fortuitum
[11] = Mycolicibacterium fortuitum, mean ± SD, read-out: MIC Mycobacterium fortuitum
[12] = Mycobacterium tuberculosis, H37RV; individual example; read-out: MBC Mtb H37Rv
[13] = SPR, individual measurements (source data), read-out: KD ClpC1-NTD
[14] = SPR, read-out: ClpC1-NTD KD Mean ± SD
[15] = oral gavage 30 mg/kg, mice, Mean
[16] = oral gavage, individual animals 1-3

SMILES | MIC (Acinetobacter baumannii; [4]) [µM] | MIC (Acinetobacter baumannii; [5]) | MIC Mtb # 11291 (Mtb # 11291; single well replicates) [µg/mL] | MIC (Mtb # 11291; single well replicates) [µM] | MIC (µg/ml) Mycobacterium fortuitum (Mycobacterium fortuitum; [6]) [µg/mL] | MIC (Mycobacterium fortuitum; [7]) [µM] | MIC (Mycobacterium fortuitum; [8]) | MIC (Mycobacterium fortuitum; [9]) [µM] | MIC (Mycobacterium fortuitum; [10]) [µg/mL] | MIC (Mycobacterium fortuitum; [11]) [µM] | MBC (Mtb H37Rv; [12]) | Kd [3, 13] | Kd [3, 14] [nM] | also measured
C#CC[C@@H]1NC(=O)[C@H](CC(C)C)N(C)C(=O)[C@H](C(C)C)NC(=O)[C@H]([C@H](OC)c2ccccc2)NC(=O)[C@H](C)NC(=O)[C@H](C[C@@H](C)CO)N(C)C(=O)[C@H](Cc2cn(C)c3ccccc23)NC1=O [Compound 10] (cyclo(A[Phe(βR-OMe)]V[NMeL][Pra][Trp(1-Me)][NMeLeu(5-OH,4R)])) | > 50 | > 50 µM and > 45.6 µg/mL | 0.36 (≈ 0.394 µM) | 0.39 (≈ 0.356 µg/mL) | 11.41 (≈ 12.5 µM) | 12.5 | 11.4 µg/mL | 12.5 | 11.4 | 12.5 | 12.5 µM and 11.4 µg/mL | 4.65 nM and 4.5 nM and 3.27 nM and 3.4 nM | 4 ± 0.7 | ClpC1 peak area ([1]; 100 µM, Figure 5c, well replicates of 3 experiments): 412581 and 373241 and 483939 and 462615 and 61275.5 and 294306 and 484139 and 455205 and 481589; intracellular degradation of ClpC1 ([1]; Msm #607, 24 h, result in words): did not induce degradation of ClpC1; MIC (Mycobacterium fortuitum; Experiment 1, read-out: MIC Mycobacterium fortuitum): 12.5 µM; MBC (Mtb H37Rv; Mycobacterium tuberculosis, H37RV, read-out: MBC (from Set 3) Mtb H37Rv): 12.5 µM and 11.4 µg/mL; Emax [2]: 0.19
CO[C@H](c1ccccc1)[C@@H]1NC(=O)[C@H](C)NC(=O)[C@H](C[C@@H](C)CO)N(C)C(=O)[C@H](Cc2cn(Cc3cn(CCOCCn4cc(Cn5cc(C[C@@H]6NC(=O)[C@H](C(C)C)NC(=O)[C@H](CC(C)C)N(C)C(=O)[C@H](C(C)C)NC(=O)[C@H]([C@H](OC)c7ccccc7)NC(=O)[C@H](C)NC(=O)[C@H](C[C@@H](C)CO)N(C)C6=O)c6ccccc65)nn4)nn3)c3ccccc23)NC(=O)[C@H](C(C)C)NC(=O)[C@H](CC(C)C)N(C)C(=O)[C@H](C(C)C)NC1=O [Compound 6] | – | – | – | – | – | – | – | – | – | – | – | 1.36 nM and 1.13 nM and 0.535 nM and 0.649 nM | 0.9 ± 0.4 | Plasma concentration 0.5 h (in vivo; [15]): BLOQ; Plasma concentration 1 h (in vivo; [15]): BLOQ; Plasma concentration 2 h (in vivo; [15]): BLOQ; Plasma concentration 4 h (in vivo; [15]): BLOQ; Plasma concentration 6 h (in vivo; [15]): BLOQ; Plasma concentration 24 h (in vivo; [15]): BLOQ; Plasma concentration […] (in vivo; [15]): BLOQ; Plasma concentration 0.5 h (in vivo; [16]): BLOQ; Plasma concentration 1 h (in vivo; [16]): BLOQ; Plasma concentration 2 h (in vivo; [16]): BLOQ; Plasma concentration 4 h (in vivo; [16]): BLOQ; Plasma concentration 6 h (in vivo; [16]): BLOQ; Plasma concentration 24 h (in vivo; [16]): BLOQ; Plasma concentration […] (in vivo; [16]): BLOQ; koff ([3]; SPR dissociation rate constant, read-out: koff ClpC1-NTD Mean ± SD): 0.001 s⁻¹; koff ClpC1-NTD ([3]; SPR, single independent measurements): 0.001 s⁻¹
COc1c(N2C[C@@H]3CCCN[C@@H]3C2)c(F)cc2c(=O)c(C(=O)O)cn(C3CC3)c12 [Moxifloxacin, reference compound] | 0.3 (≈ 0.12 µg/mL) | 0.31 µM and 0.125 µg/mL | 0.10 (≈ 0.249 µM) | 0.24 (≈ 0.0963 µg/mL) | 0.06 (≈ 0.149 µM) | 0.15 | 0.0747 µM and 0.03 µg/mL | 0.15 | 0.06 | 0.1 | 0.3 µM and 0.1 µg/mL | – | – | MIC (Mtb # 11291; Mycobacterium tuberculosis, mean, n = 2 well replicates): 0.2 µM (≈ 0.0803 µg/mL); MIC (Mtb # 11291; Mycobacterium tuberculosis, single well replicates): 0.24 µM (≈ 0.0963 µg/mL); MBC (Mtb H37Rv; Mycobacterium tuberculosis, H37RV; read-out: MBC (from Set 3) Mtb H37Rv): 0.13 µg/mL and 0.31 µM
